Experimental data as given in the supplement of paper PMC8617591.

Key:
[1] = system: Mycobacterium tuberculosis Erdman (autoluminescent); assay: FIC90 (Loewe) at 90% inhibition (log2); higher = more antagonistic
Protocol: (§1)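 DiaMOND equipotent two-drug combination dose responses against autoluminescent M. tuberculosis Erdman in 8 in vitro models. Read-out is OD600, or luminescence for the intracellular and dormancy models, normalised to untreated wells. Hill-fit Einf, AUC25 and GRinf are potency metrics; FIC50 and FIC90 are Loewe-additivity fractional inhibitory concentrations, given as log2 (negative = synergy). Replicates are averaged.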

[2] = system: Mycobacterium tuberculosis Erdman (autoluminescent); assay: FIC50 (Loewe) at 50% inhibition (log2); higher = more antagonistic
Protocol: as §1

[3] = system: Mycobacterium tuberculosis Erdman (autoluminescent); assay: Einf, fitted maximum growth inhibition of combination (fraction); higher = stronger maximal inhibition
Protocol: as §1

[4] = system: Mycobacterium tuberculosis Erdman (autoluminescent); assay: AUC25, normalised area under dose response up to IC25 (fraction (0-1)); higher = more potent at low dose
Protocol: as §1

[5] = system: Mycobacterium tuberculosis Erdman (autoluminescent); assay: GRinf, maximum normalised growth rate inhibition (unitless (-1 to 1)); higher = less effect (negative = killing)
Protocol: as §1

CC[C@@H](CO)NCCN[C@@H](CC)CO [ethambutol] + CO[C@H]1/C=C/O[C@@]2(C)Oc3c(C)c(O)c4c(O)c(c(/C=N/N5CCN(C)CC5)c(O)c4c3C2=O)NC(=O)/C(C)=C\C=C\[C@H](C)[C@H](O)[C@@H](C)[C@@H](O)[C@@H](C)[C@H](OC(C)=O)[C@@H]1C [rifampicin]
Conditions	AUC25, [4]	Einf, [3]	FIC50, [2]	FIC90, [1]	GRinf, [5]
in vitro model: acidic pH 5.7, time point: constant (~7 days, model-specific)	0.0993	0.914	-0.394	–	-0.41
in vitro model: acidic pH 5.7, time point: terminal (~4-5 doublings, model-specific)	0.0298	0.979	0.0255	-0.711	-0.247
in vitro model: intracellular J774, time point: constant = terminal	–	0.967	–	-2.96	-0.274

Conditions	AUC25, [4]	Einf, [3]	FIC50, [2]	FIC90, [1]	GRinf, [5]
in vitro model: butyrate, time point: constant (~7 days, model-specific)	0.0748	0.918	0.144	–	-0.00723
in vitro model: butyrate, time point: terminal (~4-5 doublings, model-specific)	0.0614	0.965	0.0567	-0.897	-0.02
in vitro model: cholesterol 0.05 mM, time point: constant (~7 days, model-specific)	0.0842	0.701	-0.298	–	-0.173
in vitro model: cholesterol 0.05 mM, time point: terminal (~4-5 doublings, model-specific)	0.0953	0.887	0.234	–	-0.127
in vitro model: cholesterol-high 0.2 mM, time point: constant (~7 days, model-specific)	0.029	0.952	0.64	–	-0.414
in vitro model: cholesterol-high 0.2 mM, time point: terminal (~4-5 doublings, model-specific)	0.0647	0.996	0.607	0.842	-0.635
in vitro model: dormancy (butyrate + nitrate, low O2), time point: constant (~7 days, model-specific)	0.0667	0.847	-0.0202	–	0.407
in vitro model: dormancy (butyrate + nitrate, low O2), time point: terminal (~4-5 doublings, model-specific)	0.067	0.988	0.236	-0.513	-0.164
in vitro model: standard 7H9 glycerol, time point: constant = terminal	0.0324	0.894	-0.0789	–	0.143
in vitro model: valerate, time point: constant (~7 days, model-specific)	0.0519	0.845	-0.00587	–	0.0704
in vitro model: valerate, time point: terminal (~4-5 doublings, model-specific)	0.0294	0.933	0.0274	-1.32	0.0354

CC[C@@H](CO)NCCN[C@@H](CC)CO [ethambutol] + COc1c(N2C[C@@H]3CCCN[C@@H]3C2)c(F)cc2c(=O)c(C(=O)O)cn(C3CC3)c12 [moxifloxacin]
Conditions	AUC25, [4]	Einf, [3]	FIC50, [2]	FIC90, [1]	GRinf, [5]
in vitro model: acidic pH 5.7, time point: constant (~7 days, model-specific)	0.0862	0.734	-0.277	–	-0.475
in vitro model: acidic pH 5.7, time point: terminal (~4-5 doublings, model-specific)	0.0741	0.954	0.597	0.0622	-0.293
in vitro model: intracellular J774, time point: constant = terminal	–	0.983	–	-1.25	-0.327

Conditions	AUC25, [4]	Einf, [3]	FIC50, [2]	FIC90, [1]	GRinf, [5]
in vitro model: butyrate, time point: constant (~7 days, model-specific)	0.0864	0.923	0.483	–	-0.00896
in vitro model: butyrate, time point: terminal (~4-5 doublings, model-specific)	0.0649	0.968	0.451	0.0888	-0.0343
in vitro model: cholesterol 0.05 mM, time point: constant (~7 days, model-specific)	0.0757	0.731	0.0661	–	-0.25
in vitro model: cholesterol 0.05 mM, time point: terminal (~4-5 doublings, model-specific)	0.0944	0.944	0.765	0.527	-0.264
in vitro model: cholesterol-high 0.2 mM, time point: constant (~7 days, model-specific)	0.0274	0.942	0.681	–	-0.404
in vitro model: cholesterol-high 0.2 mM, time point: terminal (~4-5 doublings, model-specific)	0.0429	0.999	0.886	0.669	-0.639
in vitro model: dormancy (butyrate + nitrate, low O2), time point: constant (~7 days, model-specific)	0.105	0.833	0.352	–	0.45
in vitro model: dormancy (butyrate + nitrate, low O2), time point: terminal (~4-5 doublings, model-specific)	0.0964	0.967	-0.052	0.0461	-0.155
in vitro model: standard 7H9 glycerol, time point: constant = terminal	0.066	0.975	0.0276	-0.116	-0.21
in vitro model: valerate, time point: constant (~7 days, model-specific)	0.0569	0.878	0.703	–	-0.0437
in vitro model: valerate, time point: terminal (~4-5 doublings, model-specific)	0.0611	0.955	0.344	-0.489	-0.0314

CC[C@@H](CO)NCCN[C@@H](CC)CO [ethambutol] + NC(=O)c1cnccn1 [pyrazinamide]
Conditions	AUC25, [4]	Einf, [3]	FIC50, [2]	FIC90, [1]	GRinf, [5]
in vitro model: acidic pH 5.7, time point: constant (~7 days, model-specific)	0.0998	0.866	-0.632	–	-0.453
in vitro model: acidic pH 5.7, time point: terminal (~4-5 doublings, model-specific)	0.0625	0.968	0.212	-0.791	-0.281
in vitro model: intracellular J774, time point: constant = terminal	–	0.994	–	-0.166	-0.569

Conditions	AUC25, [4]	Einf, [3]	FIC50, [2]	FIC90, [1]	GRinf, [5]
in vitro model: butyrate, time point: constant (~7 days, model-specific)	0.0986	0.866	0.466	–	0.133
in vitro model: butyrate, time point: terminal (~4-5 doublings, model-specific)	0.0883	0.817	0.636	–	-0.101
in vitro model: cholesterol 0.05 mM, time point: constant (~7 days, model-specific)	0.129	0.722	–	–	-0.326
in vitro model: cholesterol 0.05 mM, time point: terminal (~4-5 doublings, model-specific)	0.14	0.901	-0.0968	–	-0.224
in vitro model: cholesterol-high 0.2 mM, time point: constant (~7 days, model-specific)	0.0356	0.843	0.961	–	-0.204
in vitro model: cholesterol-high 0.2 mM, time point: terminal (~4-5 doublings, model-specific)	0.0539	0.999	0.865	0.821	-0.777
in vitro model: dormancy (butyrate + nitrate, low O2), time point: constant (~7 days, model-specific)	0.0925	0.813	-0.134	–	0.463
in vitro model: dormancy (butyrate + nitrate, low O2), time point: terminal (~4-5 doublings, model-specific)	0.085	0.945	0.32	-0.408	0.154
in vitro model: standard 7H9 glycerol, time point: constant = terminal	0.0625	0.873	0.18	–	0.0807
in vitro model: valerate, time point: constant (~7 days, model-specific)	0.0825	0.705	-0.152	–	0.281
in vitro model: valerate, time point: terminal (~4-5 doublings, model-specific)	0.0643	0.862	0.447	–	0.248
